Data reported in PubChem BioAssay AID328 (DTP/NCI, 2004).
Where “and” joins values, the source holds several entries; their conditions need not be identical. Identical values can stand only once. Inconclusive results and toxic doses are left out.

Test system: BDF1 mice, P388 leukemia ip, median survival T/C
Assay: NCI In Vivo Anticancer Drug Screen. Data for tumor model P388 Leukemia (intraperitoneal) in B6D2F1 (BDF1) mice
Details: endpoint: median survival time, higher = longer survival
Summary of the method: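 Compound-treated tumour-bearing mice were compared with vehicle-treated controls. Survival was recorded, and the value is the treated-group measurement divided by the control-group measurement (T/C).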

[1] = dose: 50.0 mg/kg/injection, schedule: Q01DX009 (ip), vehicle: saline with Tween-80
[2] = dose: 50.0 mg/kg/injection, schedule: Q01DX009 (ip), vehicle: saline
[3] = dose: 100.0 mg/kg/injection, schedule: Q01DX009 (ip), vehicle: Klucel (hydroxypropylcellulose) (HPC)
[4] = dose: 100.0 mg/kg/injection, schedule: Q01DX009 (ip), vehicle: saline with Tween-80
[5] = dose: 100.0 mg/kg/injection, schedule: Q01DX009 (ip), vehicle: saline
[6] = dose: 100.0 mg/kg/injection, schedule: Q04DX003 (ip), vehicle: saline
[7] = dose: 200.0 mg/kg/injection, schedule: Q01DX009 (ip), vehicle: saline with Tween-80
[8] = dose: 200.0 mg/kg/injection, schedule: Q04DX003 (ip), vehicle: saline
[9] = dose: 200.0 mg/kg/injection, schedule: Q01DX009 (ip), vehicle: Klucel (hydroxypropylcellulose) (HPC)
[10] = dose: 400.0 mg/kg/injection, schedule: Q01DX009 (ip), vehicle: Klucel (hydroxypropylcellulose) (HPC)
[11] = dose: 100.0 mg/kg/injection, schedule: Q04DX003 (ip), vehicle: saline with Tween-80
[12] = dose: 12.5 mg/kg/injection, schedule: Q01DX009 (ip), vehicle: saline with Tween-80
[13] = dose: 25.0 mg/kg/injection, schedule: Q01DX009 (ip), vehicle: saline with Tween-80
[14] = dose: 50.0 mg/kg/injection, schedule: Q04DX003 (ip), vehicle: saline with Tween-80
[15] = dose: 200.0 mg/kg/injection, schedule: Q04DX003 (ip), vehicle: saline with Tween-80
[16] = dose: 400.0 mg/kg/injection, schedule: Q04DX003 (ip), vehicle: saline with Tween-80

Structure (SMILES): CCS(=O)(=O)OCCCl
- T/C (dose: 25.0 mg/kg/injection, schedule: Q01DX009 (ip), vehicle: Klucel (hydroxypropylcellulose) (HPC)): 100 % of control
- T/C (dose: 44.0 mg/kg/injection, schedule: Q01DX009 (ip), vehicle: saline): 104 % of control
- T/C (dose: 50.0 mg/kg/injection, schedule: Q01DX009 (ip), vehicle: Klucel (hydroxypropylcellulose) (HPC)): 100 % of control
- T/C [1]: 103 % of control
- T/C [2]: 161 % of control
- T/C (dose: 66.0 mg/kg/injection, schedule: Q01DX009 (ip), vehicle: saline): 108 % of control
- T/C [3]: 105 % of control
- T/C [4]: 104 % of control
- T/C [5]: 230 % of control and 95 % of control and 108 % of control
- T/C [6]: 100 % of control
- T/C (dose: 150.0 mg/kg/injection, schedule: Q01DX009 (ip), vehicle: saline): 120 % of control
- T/C [7]: 116 % of control
- T/C [8]: 91 % of control

Structure (SMILES): CS(=O)(=O)c1nnc(-c2ccccc2)s1
- T/C [3]: 94 % of control
- T/C [9]: 100 % of control
- T/C [10]: 103 % of control

Structure (SMILES): NNC(=O)OC12CC3CC(CC(C3)C1)C2
- T/C (dose: 12.5 mg/kg/injection, schedule: Q04DX003 (ip), vehicle: Klucel (hydroxypropylcellulose) (HPC)): 105 % of control
- T/C (dose: 25.0 mg/kg/injection, schedule: Q04DX003 (ip), vehicle: Klucel (hydroxypropylcellulose) (HPC)): 105 % of control
- T/C (dose: 50.0 mg/kg/injection, schedule: Q04DX003 (ip), vehicle: Klucel (hydroxypropylcellulose) (HPC)): 120 % of control
- T/C (dose: 63.75 mg/kg/injection, schedule: Q01DX001 (ip), vehicle: Klucel (hydroxypropylcellulose) (HPC)): 100 % of control
- T/C (dose: 127.5 mg/kg/injection, schedule: Q01DX001 (ip), vehicle: Klucel (hydroxypropylcellulose) (HPC)): 122 % of control
- T/C (dose: 255.0 mg/kg/injection, schedule: Q04DX003 (ip), vehicle: Klucel (hydroxypropylcellulose) (HPC)): 90 % of control

Structure (SMILES): CC1(C)N=C(N)N=C(N)N1c1ccc(CNC(=O)Nc2ccc(S(=O)(=O)F)cc2)cc1
- T/C [5]: 115 % of control
- T/C [6]: 150 % of control
- T/C (dose: 132.0 mg/kg/injection, schedule: Q04DX003 (ip), vehicle: saline): 181 % of control and 190 % of control
- T/C (dose: 200.0 mg/kg/injection, schedule: Q01DX009 (ip), vehicle: saline): 100 % of control
- T/C [8]: 150 % of control and 177 % of control and 205 % of control
- T/C (dose: 300.0 mg/kg/injection, schedule: Q04DX003 (ip), vehicle: saline): 230 % of control and 154 % of control
- T/C (dose: 400.0 mg/kg/injection, schedule: Q04DX003 (ip), vehicle: saline): 163 % of control

Structure (SMILES): Nc1nc2c(c(=O)[nH]1)NC(CCNc1ccc(C(=O)O)cc1)CN2 (configuration not stated)
- T/C [11]: 86 % of control

Structure (SMILES): S=c1[nH]c2nc(Cl)c(Cl)nc2[nH]1
- T/C [12]: 94 % of control
- T/C [13]: 92 % of control and 115 % of control
- T/C [1]: 102 % of control
- T/C [14]: 94 % of control
- T/C [4]: 94 % of control and 99 % of control
- T/C [11]: 92 % of control
- T/C [15]: 94 % of control
- T/C (dose: 300.0 mg/kg/injection, schedule: Q01DX009 (ip), vehicle: saline with Tween-80): 105 % of control

Structure (SMILES): CC1(O)CC(=O)c2c(ccc3c2C(=O)c2cccc(O)c2C3=O)C1 (configuration not stated)
- T/C (dose: 0.5 mg/kg/injection, schedule: Q01DX009 (ip), vehicle: Klucel (hydroxypropylcellulose) (HPC)): 101 % of control
- T/C (dose: 1.0 mg/kg/injection, schedule: Q01DX009 (ip), vehicle: Klucel (hydroxypropylcellulose) (HPC)): 101 % of control
- T/C (dose: 2.0 mg/kg/injection, schedule: Q01DX009 (ip), vehicle: Klucel (hydroxypropylcellulose) (HPC)): 109 % of control
- T/C (dose: 4.0 mg/kg/injection, schedule: Q01DX009 (ip), vehicle: Klucel (hydroxypropylcellulose) (HPC)): 111 % of control

Structure (SMILES): CC(C)NC(=O)c1ccccc1-[s+]1c2ccccc2c(=O)n1C(C)C (configuration not stated)
- T/C [11]: 94 % of control
- T/C [15]: 96 % of control
- T/C [16]: 96 % of control

Structure (SMILES): CCOC(=O)CN1C=C(C(=O)c2cc3ccccc3n2S(=O)(=O)c2ccccc2)CCC1
- T/C (dose: 0.05 mg/kg/injection, schedule: Q01DX009 (ip), vehicle: saline): 104 % of control
- T/C (dose: 0.06 mg/kg/injection, schedule: Q01DX009 (ip), vehicle: saline): 105 % of control and 115 % of control
- T/C (dose: 0.1 mg/kg/injection, schedule: Q01DX009 (ip), vehicle: saline): 106 % of control
- T/C (dose: 0.12 mg/kg/injection, schedule: Q01DX009 (ip), vehicle: saline): 150 % of control
- T/C (dose: 0.13 mg/kg/injection, schedule: Q01DX009 (ip), vehicle: saline): 88 % of control
- T/C (dose: 0.2 mg/kg/injection, schedule: Q01DX009 (ip), vehicle: saline): 114 % of control
- T/C (dose: 0.25 mg/kg/injection, schedule: Q01DX009 (ip), vehicle: saline): 105 % of control and 110 % of control
- T/C (dose: 0.5 mg/kg/injection, schedule: Q01DX009 (ip), vehicle: saline): 115 % of control
- T/C (dose: 1.0 mg/kg/injection, schedule: Q01DX009 (ip), vehicle: saline): 100 % of control
- T/C (dose: 2.0 mg/kg/injection, schedule: Q01DX009 (ip), vehicle: saline): 99 % of control and 105 % of control
- T/C (dose: 4.0 mg/kg/injection, schedule: Q01DX009 (ip), vehicle: saline): 121 % of control
- T/C (dose: 8.0 mg/kg/injection, schedule: Q01DX009 (ip), vehicle: saline): 104 % of control
- T/C (dose: 16.0 mg/kg/injection, schedule: Q01DX009 (ip), vehicle: saline): 109 % of control
- T/C (dose: 32.0 mg/kg/injection, schedule: Q01DX009 (ip), vehicle: saline): 106 % of control

Structure (SMILES): CC1CCCCC12OCCO2 (configuration not stated)
- T/C [1]: 100 % of control
- T/C [4]: 113 % of control
- T/C [11]: 100 % of control
- T/C [7]: 104 % of control
- T/C [15]: 109 % of control
- T/C [16]: 100 % of control

Structure (SMILES): COc1ccc(C(=O)CC(=O)CC(=O)c2ccccc2)cc1
- T/C [9]: 86 % of control
- T/C [10]: 90 % of control

Structure (SMILES): ClCCN(CCCl)c1ccc(C=Nc2ccc(/C=C\c3ccncc3)cc2)cc1
- T/C [12]: 115 % of control
- T/C [13]: 101 % of control
- T/C [1]: 98 % of control
- T/C [4]: 89 % of control

Structure (SMILES): Cn1c2ccccc2c(=S)c2c(O)cc3c(c21)C=CC(C)(C)O3
- T/C (dose: 50.0 mg/kg/injection, schedule: Q01DX005 (ip), vehicle: saline with Tween-80): 89 % of control
- T/C (dose: 100.0 mg/kg/injection, schedule: Q01DX005 (ip), vehicle: saline with Tween-80): 90 % of control
- T/C (dose: 200.0 mg/kg/injection, schedule: Q01DX005 (ip), vehicle: saline with Tween-80): 89 % of control

Structure (SMILES): CNS(=O)(=O)c1ccc2c(c1)nc(SC)n2C
- T/C [11]: 100 % of control
- T/C [15]: 100 % of control
- T/C [16]: 104 % of control

Structure (SMILES): OCc1ccn2c1C(O)CC2 (configuration not stated)
- T/C (dose: 12.5 mg/kg/injection, schedule: Q01DX009 (ip), vehicle: other): 112 % of control
- T/C (dose: 25.0 mg/kg/injection, schedule: Q01DX009 (ip), vehicle: other): 102 % of control
- T/C (dose: 25.0 mg/kg/injection, schedule: Q01DX009 (ip), vehicle: saline): 115 % of control
- T/C (dose: 50.0 mg/kg/injection, schedule: Q01DX009 (ip), vehicle: other): 100 % of control
- T/C [2]: 165 % of control
- T/C (dose: 100.0 mg/kg/injection, schedule: Q01DX009 (ip), vehicle: other): 100 % of control
- T/C [5]: 240 % of control and 100 % of control

Structure (SMILES): CC(=O)N\C(N)=N/N=C\C(C)=N/N=C(\N)NC(C)=O
- T/C [1]: 97 % of control
- T/C [4]: 100 % of control
- T/C [7]: 100 % of control

Structure (SMILES): CC(=O)Nc1ccc(/C=C\c2ccnc3ccccc23)cc1
- T/C (dose: 33.3 mg/kg/injection, schedule: Q04DX002 (ip), vehicle: saline with Tween-80): 111 % of control
- T/C (dose: 50.0 mg/kg/injection, schedule: Q04DX002 (ip), vehicle: saline with Tween-80): 107 % of control
- T/C (dose: 75.0 mg/kg/injection, schedule: Q04DX002 (ip), vehicle: saline with Tween-80): 112 % of control

Structure (SMILES): COc1ccc(NC(=S)Nc2ccccn2)cc1
- T/C [12]: 100 % of control
- T/C [13]: 100 % of control
- T/C [1]: 104 % of control
- T/C (dose: 100.0 mg/kg/injection, schedule: Q01DX001 (ip), vehicle: saline): 103 % of control
- T/C [4]: 100 % of control
- T/C (dose: 200.0 mg/kg/injection, schedule: Q01DX001 (ip), vehicle: saline): 111 % of control
- T/C [7]: 96 % of control
- T/C (dose: 400.0 mg/kg/injection, schedule: Q01DX001 (ip), vehicle: saline): 107 % of control
- T/C (dose: 400.0 mg/kg/injection, schedule: Q01DX009 (ip), vehicle: saline with Tween-80): 104 % of control

Structure (SMILES): Cc1sc(N)c(C#N)c1C
- T/C [14]: 100 % of control
- T/C [11]: 120 % of control
- T/C [15]: 100 % of control
